Source: US4871756A, “Leukotriene antagonists” (Merck Frosst Canada, Inc., priority 1987, dated 1989)

Test system: Leukotriene D4 (ileum contraction induced by LTD4)
Assay: Guinea Pig Ileum Assay for Evaluation of Antagonists of Leukotriene D4 (Inhibition of Ileum Contraction Induced by LTD4)
Type: cell-based, guinea pig (male Hartley strain)
Details: Cavia porcellus, LTD4 0.3 ng/ml, 30 second pretreatment; for inhibition at 10 µg/mL: 10 μg/ml
Description: The terminal ileum from male Hartley strain guinea pigs (300-500 g) was removed and suspended under 1 g resting tension in Tyrode's solution containing 1.0×10^-6 M atropine sulfate and 1.6×10^-6 M timolol (beta blocker). After a 15-30 minute stabilization period, a standard dose of leukotriene D4 (0.3 ng/ml--final bath concentration)was added repeatedly until consistent and reproducible contractile responses were obtained. Isometric contractions to leukotriene D4 were recorded for 60 seconds and then the tissue was washed and allowed to recove to baseline (2 minutes) before the next dose of leukotriene D4 was added. For testing antagonist compounds, a 30 second pretreatment period was used and the percent inhibition of the control contraction to leukotriene D4 was recorded. A similar procedure was employed for testing active compounds against contractions to a standard dose of histamine (50 ng/ml--final bath concentration).

Structure (SMILES)	inhibition at 1 µg/mL (1 μg/ml) [%]	inhibition at 10 µg/mL [%]
CCCc1c(OCC2(O)CCCCC2Sc2ccc(C(=O)CCC(=O)O)cc2)ccc(C(C)=O)c1O [L-649,106]	23	80
CCCc1c(OCC2(Sc3ccc(C(=O)CCC(=O)O)cc3)CCCCC2O)ccc(C(C)=O)c1O [L-649,107]		12
